Assay results published in patent US8063077B2, “Factor Xa inhibitors” (Millennium Pharmaceuticals, Inc., priority 2006, dated 2011).

Target: T1, human plasma protein factor Xa (Homo sapiens, UniProt P00742)
T1 construct: The human plasma protein factor Xa was purchased from Haematologic Technologies; purchased Haematologic Technologies (Essex Junction, Vt.); host or cells: human plasma
Assay: Factor Xa IC50 determination, cleavage of paranitroanilide substrate S-2765
Assay type: biochemical
Conditions: factor Xa 1 nM, S2765 100 μM, Tris buffered saline pH 7.4, 5% DMSO
Text: This example illustrates methods for evaluating the compounds of the invention, along with results obtained for such assays. The in vitro and in vivo human Factor Xa activities of the inventive compounds can be determined by various procedures known in the art, such as a test for their ability to inhibit the activity of human plasma Factor Xa. […] The IC50 value is the concentration (in nM) of the compound required to provide 50% inhibition of human Factor Xa proteolytic activity.
An in vitro assay for detecting and measuring inhibition activity against Factor Xa is as follows:
The substrate S-2765 (Z-D-Arg-Gly-Arg-pNA•HCl) was obtained from Diapharma (West Chester, Ohio).
The human plasma protein factor Xa was purchased from Haematologic Technologies (Essex Junction, Vt.).
All assays, which are performed in 96-well microtiter plates, measure proteolytic activity of the enzyme (factor Xa) by following cleavage of a paranitroanilide peptide substrate. The assay buffer used for proteolytic assays was Tris buffered saline (20 mM Tris, 150 mM NaCl, 5 mM CaCl2, 0.1% Bovine serum albumin (BSA), 5% Dimethly Sulfoxide (DMSO) pH 7.4). In a 96-well microtiter plate, inhibitor was serially diluted to give a range of final concentrations from 0.01 nM to 10 μM. Duplicate sets of wells were assayed and control wells without inhibitor were included. Enzyme was added to each well, (factor Xa concentration=1 nM), the plate was shaken for 5 seconds and then incubated for 5 minutes at room temperature. S2765 was added (100 μM final) and the plate was shaken for 5 seconds (final volume in each well was 200 μl). The degree of substrate hydrolysis was measured at 405 nm on a Thermomax plate reader (Molecular Devices, Sunnyvale, Calif.) for 2 minutes. The initial velocities of substrate cleavage (mOD/min), for each range of inhibitor concentrations, were fitted to a four parameter equation using Softmax data analysis software. The parameter C, derived from the resulting curve-fit, corresponded to the concentration for half maximal inhibition (IC50).

T1 sequence (P00742 235-488 limits assumed): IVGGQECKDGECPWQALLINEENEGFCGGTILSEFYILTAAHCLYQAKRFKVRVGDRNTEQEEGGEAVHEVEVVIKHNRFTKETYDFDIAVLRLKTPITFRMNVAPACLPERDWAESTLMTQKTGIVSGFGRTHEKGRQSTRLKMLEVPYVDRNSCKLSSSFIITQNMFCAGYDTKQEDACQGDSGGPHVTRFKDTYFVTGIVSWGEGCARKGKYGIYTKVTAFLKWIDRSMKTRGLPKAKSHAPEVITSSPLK
T1 sequence (P00742 41-179 partner limits assumed): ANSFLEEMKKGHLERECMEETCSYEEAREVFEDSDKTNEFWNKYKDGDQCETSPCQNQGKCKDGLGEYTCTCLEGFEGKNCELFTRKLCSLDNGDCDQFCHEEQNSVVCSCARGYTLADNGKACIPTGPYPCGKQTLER

Compound | IC50 [nM]
O=C(NCc1cn(-c2ccc(-n3ccccc3=O)cc2N2CCSCC2)cn1)c1ccc(Cl)s1 [Compound 24, 5-Chloro-N-((1-(4-(2-oxopyridin-1(2H)-yl)-2-thiomorpholinophenyl)-1H-imidazol-4-yl)methyl)thiophene-2-carboxamide] | ≤ 100
Cn1cc(Cl)cc1C(=O)NCc1cn(-c2ccc(-n3ccccc3=O)cc2)cn1 [Compound 37, 4-chloro-1-methyl-N-((1-(4-(2-oxopyridin-1(2H)-yl)phenyl)-1H-imidazol-4-yl)methyl)-1H-pyrrole-2-carboxamide] | ≥ 500
O=C(NCc1cn(-c2ccc(N3CCOCC3=O)cc2)cn1)c1ccc(Cl)s1 [Compound 11, 5-Chloro-N-((1-(4-(3-oxomorpholino)phenyl)-1H-imidazol-4-yl)methyl)thiophene-2-carboxamide] | ≤ 100
O=C(NCc1cn(-c2ccc(N3CCCNC3=O)cc2)cn1)c1ccc(Cl)s1 [Compound 18, 5-Chloro-N-((1-(4-(2-oxo-tetrahydropyrimidin-1(2H)-yl)phenyl)-1H-imidazol-4-yl)methyl)thiophene-2-carboxamide] | ≤ 100
O=C(NCc1cn(-c2ccc(-n3ccc(=O)[nH]c3=O)cc2)cn1)c1ccc(Cl)s1 [Compound 47, 5-chloro-N-((1-(4-(2,4-dioxo-3,4-dihydropyrimidin-1(2H)-yl)phenyl)-1H-imidazol-4-yl)methyl)thiophene-2-carboxamide] | ≤ 100
O=C1CN(c2ccc(-n3cnc(CNC(=O)c4ccc(Cl)s4)c3)cc2)C(=O)CN1 [Compound 20, 5-Chloro-N-((1-(4-(2,5-dioxopiperazin-1-yl)phenyl)-1H-imidazol-4-yl)methyl)thiophene-2-carboxamide] | ≥ 500
C/N=c1\ccccn1-c1ccc(-n2cnc(CNC(=O)c3ccc(Cl)s3)c2)cc1 [Compound 34, (E)-5-chloro-N-((1-(4-(2-(methylimino)pyridin-1(2H)-yl)phenyl)-1H-imidazol-4-yl)methyl)thiophene-2-carboxamide] | ≤ 100
O=C(NCc1cn(-c2ccc(N3CCS(=O)(=O)CC3=O)cc2)cn1)c1ccc(Cl)s1 [Compound 16, 5-Chloro-N-((1-(4-(1,1-dioxo-3-oxothiomorpholino)phenyl)-1H-imidazol-4-yl)methyl)thiophene-2-carboxamide] | ≥ 500
O=C(NCc1cn(-c2ccc(N3CC[S+]([O-])CC3=O)cc2)cn1)c1ccc(Cl)s1 (centres unmarked) [Compound 17, 5-Chloro-N-((1-(4-(1,3-dioxothiomorpholino)phenyl)-1H-imidazol-4-yl)methyl)thiophene-2-carboxamide] | 100 to 500
COc1ccc(/N=c2\ccccn2-c2ccc(-n3cnc(CNC(=O)c4ccc(Cl)s4)c3)cc2)cc1 [Compound 35, (E)-5-chloro-N-((1-(4-(2-(4-methoxyphenylimino)pyridin-1(2H)-yl)phenyl)-1H-imidazol-4-yl)methyl)thiophene-2-carboxamide] | ≤ 100
O=C(NCc1cn(-c2ccc(-n3ccccc3=O)cc2NCCO)cn1)c1ccc(Cl)s1 [Compound 27, 5-Chloro-N-((1-(2-(2-hydroxyethylamino)-4-(2-oxopyridin-1(2H)-yl)phenyl)-1H-imidazol-4-yl)methyl)thiophene-2-carboxamide] | ≤ 100
C[S+]([O-])c1cc(-n2ccccc2=O)ccc1-n1cnc(CNC(=O)c2ccc(Cl)s2)c1 (centres unmarked) [Compound 23, 5-chloro-N-((1-(2-(methylsulfinyl)-4-(2-oxopyridin-1(2H)-yl)phenyl)-1H-imidazol-4-yl)methyl)thiophene-2-carboxamide] | ≤ 100
CS(=O)(=O)c1cc(-n2ccccc2=O)ccc1-n1cnc(CNC(=O)c2ccc(Cl)s2)c1 [Compound 22, 5-Chloro-N-((1-(2-(methylsulfonyl)-4-(2-oxopyridin-1(2H)-yl)phenyl)-1H-imidazol-4-yl)methyl)thiophene-2-carboxamide] | ≤ 100
O=C(NCc1cn(-c2ccc(-n3ccccc3=S)cc2)cn1)c1ccc(Cl)s1 [Compound 30, 5-Chloro-N-((1-(4-(2-thioxopyridin-1(2H)-yl)phenyl)-1H-imidazol-4-yl)methyl)thiophene-2-carboxamide] | ≤ 100
O=C(NCc1cn(-c2ccc(-n3ccccc3=O)cc2N2CCS(=O)(=O)CC2)cn1)c1ccc(Cl)s1 [Compound 25, 5-Chloro-N-((1-(4-(2-oxopyridin-1(2H)-yl)-2-(1,1-dioxo-thiomorpholin-4-yl)phenyl)-1H-imidazol-4-yl)methyl)thiophene-2-carboxamide] | ≤ 100
Cn1c(Cl)ccc1C(=O)NCc1cn(-c2ccc(-n3ccccc3=O)cc2)cn1 [Compound 38, 5-chloro-1-methyl-N-((1-(4-(2-oxopyridin-1(2H)-yl)phenyl)-1H-imidazol-4-yl)methyl)-1H-pyrrole-2-carboxamide] | ≥ 500
O=C(NCc1cn(-c2ccc(-n3ncccc3=O)cc2)cn1)c1ccc(Cl)s1 [Compound 13, 5-Chloro-N-((1-(4-(6-oxopyridazin-1(6H)-yl)phenyl)-1H-imidazol-4-yl)methyl)thiophene-2-carboxamide] | ≥ 500

Continued, values first:

IC50 [nM] | Compound
≤ 100 | Nc1nc(=O)n(-c2ccc(-n3cnc(CNC(=O)c4ccc(Cl)s4)c3)cc2)cc1F [Compound 50, N-((1-(4-(4-amino-5-fluoro-2-oxopyrimidin-1(2H)-yl)phenyl)-1H-imidazol-4-yl)methyl)-5-chlorothiophene-2-carboxamide]
≤ 100 | C[S+]([O-])c1nc(CNC(=O)c2ccc(Cl)s2)cn1-c1ccc(-n2ccccc2=O)cc1 (centres unmarked) [Compound 57, 5-chloro-N-((2-(methylsulfinyl)-1-(4-(2-oxopyridin-1(2H)-yl)phenyl)-1H-imidazol-4-yl)methyl)thiophene-2-carboxamide]
≤ 100 | C[S+]([O-])c1nc(CNC(=O)c2ccc(Cl)s2)cn1-c1ccc(-n2cccc(F)c2=O)cc1 (centres unmarked) [Compound 66, 5-chloro-N-((1-(4-(3-fluoro-2-oxopyridin-1(2H)-yl)phenyl)-2-(methylsulfinyl)-1H-imidazol-4-yl)methyl)thiophene-2-carboxamide]
≤ 100 | Nc1ccn(-c2ccc(-n3cnc(CNC(=O)c4ccc(Cl)s4)c3)cc2)c(=O)n1 [Compound 48, N-((1-(4-(4-amino-2-oxopyrimidin-1(2H)-yl)phenyl)-1H-imidazol-4-yl)methyl)-5-chlorothiophene-2-carboxamide]
≤ 100 | O=C(NCc1cn(-c2ccc(N3CCCCC3=O)cc2)cn1)c1ccc(Cl)s1 [Compound 52, 5-chloro-N-((1-(4-(2-oxopiperidin-1-yl)phenyl)-1H-imidazol-4-yl)methyl)thiophene-2-carboxamide]
≤ 100 | CS(=O)(=O)c1nc(CNC(=O)c2ccc(Cl)s2)cn1-c1ccc(-n2cc(F)ccc2=O)cc1 [Compound 65, 5-chloro-N-((1-(4-(5-fluoro-2-oxopyridin-1(2H)-yl)phenyl)-2-(methylsulfonyl)-1H-imidazol-4-yl)methyl)thiophene-2-carboxamide]
≤ 100 | Cc1nc(CNC(=O)c2ccc(Cl)s2)cn1-c1ccc(-n2ccccc2=O)cc1 [Compound 62, 5-Chloro-N-((2-methyl-1-(4-(2-oxopyridin-1(2H)-yl)phenyl)-1H-imidazol-4-yl)methyl)thiophene-2-carboxamide]
≤ 100 | CS(=O)(=O)c1nc(CNC(=O)c2ccc(Cl)s2)cn1-c1ccc(-n2ccccc2=O)cc1 [Compound 56, 5-chloro-N-((2-(methylsulfonyl)-1-(4-(2-oxopyridin-1(2H)-yl)phenyl)-1H-imidazol-4-yl)methyl)thiophene-2-carboxamide]
≤ 100 | O=C(NCc1cn(-c2ccc(-n3ccccc3=O)cc2OCCN2CCCCC2)cn1)c1ccc(Cl)s1 [Compound 53, 5-chloro-N-((1-(4-(2-oxopyridin-1(2H)-yl)-2-(2-(piperidin-1-yl)ethoxy)phenyl)-1H-imidazol-4-yl)methyl)thiophene-2-carboxamide]
≤ 100 | O=C(NCc1cn(-c2ccc(-n3cccc(OCCO)c3=O)cc2)cn1)c1ccc(Cl)s1 [Compound 59, 5-chloro-N-((1-(4-(3-(2-hydroxyethoxy)-2-oxopyridin-1(2H)-yl)phenyl)-1H-imidazol-4-yl)methyl)thiophene-2-carboxamide]
≥ 500 | Cc1c(CNC(=O)c2ccc(Cl)s2)ncn1-c1ccc(-n2ccccc2=O)cc1 [Compound 63, 5-Chloro-N-((5-methyl-1-(4-(2-oxopyridin-1(2H)-yl)phenyl)-1H-imidazol-4-yl)methyl)thiophene-2-carboxamide]
≤ 100 | C[S+]([O-])c1nc(CNC(=O)c2ccc(Cl)s2)cn1-c1ccc(-n2cc(F)ccc2=O)cc1 (centres unmarked) [Compound 64, 5-chloro-N-((1-(4-(5-fluoro-2-oxopyridin-1(2H)-yl)phenyl)-2-(methylsulfinyl)-1H-imidazol-4-yl)methyl)thiophene-2-carboxamide]
